Assays:
Experiment in all cases: cells
RS4-11 = type: functional, cell-based, Homo sapiens; conditions: Homo sapiens, RS4-11
Description: SANGER: Inhibition of human RS4-11 cell growth in a cell viability assay.

LXF-289 cell line = type: functional, cell-based; conditions: Homo sapiens
Description: SANGER: Inhibition of human LXF-289 cell growth in a cell viability assay.

LU-139 = type: functional, cell-based, Homo sapiens; conditions: Homo sapiens, LU-139
Description: SANGER: Inhibition of human LU-139 cell growth in a cell viability assay.

NCI-H747 = type: functional, cell-based, Homo sapiens; conditions: Homo sapiens, NCI-H747
Description: SANGER: Inhibition of human NCI-H747 cell growth in a cell viability assay.

A388 = type: functional, cell-based; conditions: Homo sapiens
Description: SANGER: Inhibition of human A388 cell growth in a cell viability assay.

OS-RC-2 = type: functional, cell-based, Homo sapiens; conditions: Homo sapiens, OS-RC-2
Description: SANGER: Inhibition of human OS-RC-2 cell growth in a cell viability assay.

ES3 = type: functional, cell-based, Homo sapiens; conditions: Homo sapiens, ES3
Description: SANGER: Inhibition of human ES3 cell growth in a cell viability assay.

MS-1 = type: functional, cell-based, Homo sapiens; conditions: Homo sapiens, MS-1
Description: SANGER: Inhibition of human MS-1 cell growth in a cell viability assay.

ES6 = type: functional, cell-based; conditions: Homo sapiens
Description: SANGER: Inhibition of human ES6 cell growth in a cell viability assay.

LS-123 = type: functional, cell-based, Homo sapiens; conditions: Homo sapiens, LS-123
Description: SANGER: Inhibition of human LS-123 cell growth in a cell viability assay.

NCI-H1650 = type: functional, cell-based, Homo sapiens; conditions: Homo sapiens, NCI-H1650
Description: SANGER: Inhibition of human NCI-H1650 cell growth in a cell viability assay.

EW-18 = type: functional, cell-based, Homo sapiens; conditions: Homo sapiens, EW-18; read-out: IC50
Description: SANGER: Inhibition of human EW-18 cell growth in a cell viability assay.

A4-Fuk = type: functional, cell-based, Homo sapiens; conditions: Homo sapiens, A4-Fuk
Description: SANGER: Inhibition of human A4-Fuk cell growth in a cell viability assay.

QIMR-WIL = type: functional, cell-based, Homo sapiens; conditions: Homo sapiens, QIMR-WIL
Description: SANGER: Inhibition of human QIMR-WIL cell growth in a cell viability assay.

HAL-01 = type: functional, cell-based, Homo sapiens; conditions: Homo sapiens, HAL-01
Description: SANGER: Inhibition of human HAL-01 cell growth in a cell viability assay.

LS-1034 = type: functional, cell-based, Homo sapiens; conditions: Homo sapiens, LS-1034
Description: SANGER: Inhibition of human LS-1034 cell growth in a cell viability assay.

KY821 = type: functional, cell-based, Homo sapiens; conditions: Homo sapiens, KY821
Description: SANGER: Inhibition of human KY821 cell growth in a cell viability assay.

L-363 = type: functional, cell-based, Homo sapiens; conditions: Homo sapiens, L-363
Description: SANGER: Inhibition of human L-363 cell growth in a cell viability assay.

C8166 = type: functional, cell-based, Homo sapiens; conditions: Homo sapiens, C8166
Description: SANGER: Inhibition of human C8166 cell growth in a cell viability assay.

TGBC24TKB = type: functional, cell-based; conditions: Homo sapiens
Description: SANGER: Inhibition of human TGBC24TKB cell growth in a cell viability assay.

JVM-3 = type: functional, cell-based, Homo sapiens; conditions: Homo sapiens, JVM-3
Description: SANGER: Inhibition of human JVM-3 cell growth in a cell viability assay.

NKM-1 = type: functional, cell-based, Homo sapiens; conditions: Homo sapiens, NKM-1
Description: SANGER: Inhibition of human NKM-1 cell growth in a cell viability assay.

KG-1 = type: functional, cell-based, Homo sapiens; conditions: Homo sapiens, KG-1
Description: SANGER: Inhibition of human KG-1 cell growth in a cell viability assay.

LAMA-84 = type: functional, cell-based, Homo sapiens; conditions: Homo sapiens, LAMA-84
Description: SANGER: Inhibition of human LAMA-84 cell growth in a cell viability assay.

NCI-H69 = type: functional, cell-based, Homo sapiens; conditions: Homo sapiens, NCI-H69
Description: SANGER: Inhibition of human NCI-H69 cell growth in a cell viability assay.

KURAMOCHI = type: functional, cell-based, Homo sapiens; conditions: Homo sapiens, KURAMOCHI
Description: SANGER: Inhibition of human KURAMOCHI cell growth in a cell viability assay.

COLO-320-HSR = type: functional, cell-based, Homo sapiens; conditions: Homo sapiens, COLO-320-HSR
Description: SANGER: Inhibition of human COLO-320-HSR cell growth in a cell viability assay.

LAN-6 = type: functional, cell-based, Homo sapiens; conditions: Homo sapiens, LAN-6
Description: SANGER: Inhibition of human LAN-6 cell growth in a cell viability assay.

SF-126 = type: functional, cell-based, Homo sapiens; conditions: Homo sapiens, SF-126
Description: SANGER: Inhibition of human SF126 cell growth in a cell viability assay.

NCI-H23 = type: functional, cell-based, Homo sapiens; conditions: Homo sapiens, NCI-H23
Description: SANGER: Inhibition of human NCI-H23 cell growth in a cell viability assay.

RKO = type: functional, cell-based, Homo sapiens; conditions: Homo sapiens, RKO
Description: SANGER: Inhibition of human RKO cell growth in a cell viability assay.

Lu-65 = type: functional, cell-based, Homo sapiens; conditions: Homo sapiens, Lu-65
Description: SANGER: Inhibition of human LU-65 cell growth in a cell viability assay.

KE-37 = type: functional, cell-based, Homo sapiens; conditions: Homo sapiens, KE-37
Description: SANGER: Inhibition of human KE-37 cell growth in a cell viability assay.

D-263MG = type: functional, cell-based, Homo sapiens; conditions: Homo sapiens, D-263MG
Description: SANGER: Inhibition of human D-263MG cell growth in a cell viability assay.

CTV-1 = type: functional, cell-based, Homo sapiens; conditions: Homo sapiens, CTV-1
Description: SANGER: Inhibition of human CTV-1 cell growth in a cell viability assay.

TE-11 = type: functional, cell-based; conditions: Homo sapiens
Description: SANGER: Inhibition of human TE-11 cell growth in a cell viability assay.

HDLM-2 = type: functional, cell-based, Homo sapiens; conditions: Homo sapiens, HDLM-2
Description: SANGER: Inhibition of human HDLM-2 cell growth in a cell viability assay.

NCI-H526 = type: functional, cell-based, Homo sapiens; conditions: Homo sapiens, NCI-H526
Description: SANGER: Inhibition of human NCI-H526 cell growth in a cell viability assay.

EKVX = type: functional, cell-based, Homo sapiens; conditions: Homo sapiens, EKVX
Description: SANGER: Inhibition of human EKVX cell growth in a cell viability assay.

HH = type: functional, cell-based, Homo sapiens; conditions: Homo sapiens, HH
Description: SANGER: Inhibition of human HH cell growth in a cell viability assay.

LB1047-RCC = type: functional, cell-based, Homo sapiens; conditions: Homo sapiens, LB1047-RCC
Description: SANGER: Inhibition of human LB1047-RCC cell growth in a cell viability assay.

AM-38 = type: functional, cell-based, Homo sapiens; conditions: Homo sapiens, AM-38
Description: SANGER: Inhibition of human AM-38 cell growth in a cell viability assay.

SNU-5 = type: functional, cell-based, Homo sapiens; conditions: Homo sapiens, SNU-5
Description: SANGER: Inhibition of human NCI-SNU-5 cell growth in a cell viability assay.

SW684 = type: functional, cell-based, Homo sapiens; conditions: Homo sapiens, SW684; read-out: IC50
Description: SANGER: Inhibition of human SW684 cell growth in a cell viability assay.

NCI-H82 = type: functional, cell-based, Homo sapiens; conditions: Homo sapiens, NCI-H82
Description: SANGER: Inhibition of human NCI-H82 cell growth in a cell viability assay.

LC-2-ad = type: functional, cell-based, Homo sapiens; conditions: Homo sapiens, LC-2-ad
Description: SANGER: Inhibition of human LC-2-ad cell growth in a cell viability assay.

LU-134-A = type: functional, cell-based, Homo sapiens; conditions: Homo sapiens, LU-134-A
Description: SANGER: Inhibition of human LU-134-A cell growth in a cell viability assay.

RCC10RGB = type: functional, cell-based, Homo sapiens; conditions: Homo sapiens, RCC10RGB
Description: SANGER: Inhibition of human RCC10RGB cell growth in a cell viability assay.

SH-4 = type: functional, cell-based; conditions: Homo sapiens
Description: SANGER: Inhibition of human SH-4 cell growth in a cell viability assay.

JVM-2 = type: functional, cell-based, Homo sapiens; conditions: Homo sapiens, JVM-2
Description: SANGER: Inhibition of human JVM-2 cell growth in a cell viability assay.

## COc1cc(N2CCC(N3CCN(C)CC3)CC2)ccc1Nc1ncc(Cl)c(Nc2ccccc2S(=O)(=O)C(C)C)n1 [TAE-684]
RS4-11
  IC50: > 2000 nM
LXF-289 cell line
  IC50: 1030 nM
LU-139
  IC50: > 2000 nM
NCI-H747
  IC50: 499 nM
A388
  IC50: > 2000 nM
OS-RC-2
  IC50: > 2000 nM
ES3
  IC50: > 2000 nM
MS-1
  IC50: > 2000 nM
ES6
  IC50: 776 nM
LS-123
  IC50: 1520 nM
NCI-H1650
  IC50: > 2000 nM
EW-18
  IC50: > 2000 nM
A4-Fuk
  IC50: 55.7 nM
QIMR-WIL
  IC50: > 2000 nM
HAL-01
  IC50: 1150 nM
LS-1034
  IC50: 636 nM
KY821
  IC50: > 2000 nM
L-363
  IC50: 824 nM
C8166
  IC50: > 2000 nM
TGBC24TKB
  IC50: 302 nM
JVM-3
  IC50: > 2000 nM
NKM-1
  IC50: 1690 nM
KG-1
  IC50: 396 nM
LAMA-84
  IC50: > 2000 nM
NCI-H69
  IC50: 1560 nM
KURAMOCHI
  IC50: 1700 nM
COLO-320-HSR
  IC50: 198 nM
LAN-6
  IC50: 174 nM
SF-126
  IC50: 1120 nM
NCI-H23
  IC50: > 2000 nM
RKO
  IC50: 1500 nM
Lu-65
  IC50: > 2000 nM
KE-37
  IC50: > 2000 nM
D-263MG
  IC50: > 2000 nM
CTV-1
  IC50: 556 nM
TE-11
  IC50: 161 nM
HDLM-2
  IC50: > 2000 nM
NCI-H526
  IC50: > 2000 nM
EKVX
  IC50: > 2000 nM
HH
  IC50: > 2000 nM
LB1047-RCC
  IC50: 545 nM
AM-38
  IC50: > 2000 nM
SNU-5
  IC50: > 2000 nM
SW684
  IC50: > 2000 nM
NCI-H82
  IC50: > 2000 nM
LC-2-ad
  IC50: 197 nM
LU-134-A
  IC50: 839 nM
RCC10RGB
  IC50: > 2000 nM
SH-4
  IC50: > 2000 nM
JVM-2
  IC50: > 2000 nM

## CC1=C(/C=C/C(C)=C/C=C/C(C)=C/C(=O)O)C(C)(C)CCC1 [TRETINOIN]
RS4-11
  IC50: 4450 nM
LXF-289 cell line
  IC50: > 10000 nM
LU-139
  IC50: > 10000 nM
NCI-H747
  IC50: > 10000 nM
A388
  IC50: > 10000 nM
OS-RC-2
  IC50: > 10000 nM
ES3
  IC50: > 10000 nM
MS-1
  IC50: > 10000 nM
ES6
  IC50: > 10000 nM
LS-123
  IC50: > 10000 nM
NCI-H1650
  IC50: > 10000 nM
EW-18
  IC50: > 10000 nM
A4-Fuk
  IC50: > 10000 nM
QIMR-WIL
  IC50: 6620 nM
HAL-01
  IC50: > 10000 nM
LS-1034
  IC50: > 10000 nM
KY821
  IC50: 5700 nM
L-363
  IC50: 2070 nM
C8166
  IC50: > 10000 nM
TGBC24TKB
  IC50: > 10000 nM
JVM-3
  IC50: > 10000 nM
NKM-1
  IC50: 8410 nM
KG-1
  IC50: > 10000 nM
LAMA-84
  IC50: 996 nM
NCI-H69
  IC50: 2270 nM
KURAMOCHI
  IC50: > 10000 nM
COLO-320-HSR
  IC50: > 10000 nM
LAN-6
  IC50: > 10000 nM
SF-126
  IC50: > 10000 nM
NCI-H23
  IC50: > 10000 nM
RKO
  IC50: > 10000 nM
Lu-65
  IC50: > 10000 nM
KE-37
  IC50: > 10000 nM
D-263MG
  IC50: > 10000 nM
CTV-1
  IC50: 963 nM
TE-11
  IC50: > 10000 nM
HDLM-2
  IC50: > 10000 nM
NCI-H526
  IC50: 7680 nM
EKVX
  IC50: > 10000 nM
HH
  IC50: 196 nM
LB1047-RCC
  IC50: > 10000 nM
AM-38
  IC50: > 10000 nM
SNU-5
  IC50: > 10000 nM
SW684
  IC50: > 10000 nM
NCI-H82
  IC50: > 10000 nM
LC-2-ad
  IC50: > 10000 nM
LU-134-A
  IC50: > 10000 nM
RCC10RGB
  IC50: > 10000 nM
SH-4
  IC50: > 10000 nM
JVM-2
  IC50: 1170 nM

Source: ChEMBL document CHEMBL1201861, “Genomics of Drug Sensitity in Cancer screening data, Wellcome Trust Sanger Institute”
